According to patent US20190224243A1 (MUSC Foundation for Research Development, priority 2018, published 2019):
Ends that are not written are not given here.

Columns and labels:
mice = mice receiving CSD treatment; cited from earlier work
bleomycin-treated mice [1] = assay: bleomycin minipump mouse model, skin fibrosis (dermal thickness, FABP4 IHC); assay type: in vivo, C57BL/6 mice
Excerpt: (§1) To create a mouse model for autologous MSC treatment, adipose-derived MSCs were isolated from C57/BL6 mice treated with bleomycin, expanded in vitro, then injected systemically via the retro-orbital sinus or subcutaneously into host C57/BL6 mice that had been treated with bleomycin.
The Pump Model (Lee R. et al., 2014, Am. J. Physio. Lung Cell. Mol. Physio. 306:L736-748) is used both to generate MSC donors and host mice receiving MSC therapy. Briefly; under isoflurane anesthesia, mini-osmotic pumps (ALZET 1007D; DURECT Corporation, Cupertino, Calif.) containing 100 μl of bleomycin (67 U/kg) or saline are implanted posterior to the scapulae of 8-10 week old C57BL/6 mice. […]
On day 24, under anesthesia the rib cage was opened, mice systemically perfused via the left ventricle with PBS, then further perfused with Z-Fix (Anatech). […] Lung tissue morphology was evaluated by the Ashcroft Method (Ashcroft T. et al., 1988, J. Clin. Pathol. 41:467-470). Skin tissue morphology was evaluated in terms of the thickness of the dermis and the subdermal adipose layer. Tissue sections were also analyzed by IHC using routine methods (Lee R. et al., 2014, Am. J. Physio. Lung Cell. Mol. Physio. 306:L736-748; Lee R. et al., 2014, Frontiers in Pharma. 5:140; Lee R. et al., 2015, Fibrogen. Tissue Repair, 8:11) and appropriate antibodies.

[2] = tested on: Healthy AT MSCs differentiated into adipocytes; assay: Healthy AT MSCs already differentiated into adipocytes, then treated ± TGFβ ± CSD, Western blotting; assay type: cell-based, human
Procedure: To induce MSCs or adipocytes into a profibrotic phenotype, the cells were cultured in the presence of TGFβ.
(§2) Adipogenic differentiation was induced by incubating cells for 3 cycles of 3 days in Adipocyte Induction Medium (Lonza) plus 1 day in Maintenance Medium. Adipogenic differentiation was analyzed by IHC and/or Western blotting using appropriate antibodies and by staining with an Oil Red 0 kit (Biovision) according to the manufacturer's instructions.
MSC cultures were rinsed with PBS. Lysis Buffer (20 mM Tris-HCl (pH 7.5)/1% NP-40/100 mM NaCl/5 mM EDTA/2 mM KCl) supplemented with 1 mM phenylmethylsulfonyl fluoride, protease inhibitor mixture Set V (Calbiochem), and phosphatase inhibitors (10 mM sodium pyrophosphate, 5 mM NaF, 10 mM beta-glycerophosphate, and 10 mM sodium orthovanadate) was added to the plates, the cells scraped into the buffer, frozen, thawed, and the extract clarified by centrifugation (10 min, 12,000 rpm, RT). The protein content of the supernatants was determined, sample buffer added, and the samples were boiled. 5 to 40 μg of protein was loaded per lane depending on the avidity of the primary antibody to be used for detection.

animal model for ILD = details: cited from earlier work
TGFβ-activated monocytes = assay: monocyte migration toward SDF-1; assay type: cell-based, human
Procedure: Migration experiments were performed using TGFβ-activated monocytes and 100 ng/ml of the chemokine SDF-1 as chemoattractant (Tourkina et al., 2011, Fibrogenesis Tissue Repair, 4:15). Cells were treated with the indicated concentrations of the indicated peptides. Cells that had migrated were counted in six high power fields per filter. Migration is expressed in terms of “Inhibition of Migration”. Each experiment included Control monocytes and the same monocytes treated with TGFβ which enhanced their rate of migration approximately three-fold. […] Intermediate degrees of inhibition were quantified on a linear basis.
To study the structure-activity relationship of CSD to identify an optimal version to be developed for treating fibrotic diseases in human patients, subdomains of CSD were tested for their ability to inhibit the migration of human monocytes. Monocytes from healthy subjects were used which, when activated using TGFβ, migrate at an enhanced rate similar to monocytes from SSc patients (Tourkina et al., 2011, Fibrogenesis Tissue Repair, 4:15).

SSc AT MSCs = assay: adipocyte induction of SSc AT MSCs ± CSD or scrambled peptide (IHC for ASMA and FABP4); assay type: cell-based, human; details: treatment during adipocyte induction
Procedure: MSCs from healthy and SSc donors were treated with adipocyte induction medium (AIM), from Lonza to induce adipogenesis.
as §2

bleomycin-treated mice [3] = assay: bleomycin minipump mouse model, lung fibrosis (Ashcroft score, ASMA and HSP47 IHC); assay type: in vivo, C57BL/6 mice
Excerpt: as §1
The Pump Model (Lee R. et al., 2014, Am. J. Physio. Lung Cell. Mol. Physio. 306:L736-748) is used both to generate MSC donors and host mice receiving MSC therapy. Briefly; under isoflurane anesthesia, mini-osmotic pumps (ALZET 1007D; DURECT Corporation, Cupertino, Calif.) containing 100 μl of bleomycin (67 U/kg) or saline are implanted posterior to the scapulae of 8-10 week old C57BL/6 mice. Pumps deliver 0.5 μl/h for 7 days, then are removed by day 10 per the manufacturer's instructions.
Mice were treated with bleomycin or vehicle using osmotic minipumps (Lee et al., 2014, Am J Physiol Lung Cell Mol Physiol, 306:L736-L748). […] Tissue morphology was quantified by the Ashcroft Method (Ashcroft et al., 1988, J Clin Pathol, 41:467-70). […]
On day 24, under anesthesia the rib cage was opened, mice systemically perfused via the left ventricle with PBS, then further perfused with Z-Fix (Anatech). […] Lung tissue morphology was evaluated by the Ashcroft Method (Ashcroft T. et al., 1988, J. Clin. Pathol. 41:467-470). Skin tissue morphology was evaluated in terms of the thickness of the dermis and the subdermal adipose layer. […]

Healthy AT MSCs = assay: ASMA staining (IHC) of Healthy AT MSCs treated with CSD, scrambled CSD and TGFβ; assay type: cell-based, human
Excerpt: Human MSCs were derived from abdominal fat tissue. SSc ILD and SSc No ILD MSCs are a generous gift from Dr. Del Papa (Milan, Italy). Healthy human MSCs are from Dr. Del Papa and from Lonza. Human MSCs were maintained in the medium previously described (Capelli C. et al., 2017, Cell Transplant. 26:841-854). Early passage cells (passage 1 to 3) were used in all experiments except when late passage cells (passage 5) were specifically used in FIG. 1F.
To induce fibrogenic differentiation in healthy human and mouse MSCs, cells were incubated for 10 days in Maintenance Medium supplemented with TGFβ (10 ng/ml). To determine the effects of knocking down caveolin-1 expression, healthy MSCs were treated with siRNA targeting caveolin-1 according to the manufacturer's instructions (Dharmacon).

[4] = TGFβ after adipocyte differentiation

Row | Compound | share of treated mice with beneficial effect on lung morphology (mice) | loss of the intradermal adipose layer (FABP4 staining) (bleomycin-treated mice [1]) | AKT activation [2, 4] | FABP4 expression [2, 4] | fibrogenic effect of TGFβ: increased ASMA expression [2, 4] | fibrogenic effect of TGFβ: increased Col I expression [2, 4] | p38 activation [2, 4] | PPARγ expression ([2]; differentiated adipocytes) | caveolin-1 expression ([2]; differentiated adipocytes) | dose working in inhibiting fibrosis (animal model for ILD) | effectiveness relative to pirfenidone in inhibiting fibrosis (animal model for ILD) | TGFβ-induced migration (TGFβ-activated monocytes; 50 pg/ml peptide) | inhibition of TGFβ-induced migration (TGFβ-activated monocytes; levels as low as 0.005 pg/ml) | number of ASMA+ cells (SSc AT MSCs) | number of FABP4+ cells (SSc AT MSCs) | ASMA levels in the bleomycin-treated lung (bleomycin-treated mice [3]) | enhanced ASMA expression in cells treated with TGFβ (Healthy AT MSCs; healthy MSCs + TGFβ) | baseline expression of ASMA (Healthy AT MSCs; healthy MSCs without TGFβ)
1 | DGIWKASFTTFTVTKYWFYR-NH2 [CSD, caveolin-1 scaffolding domain peptide, amino acids 82-101 of caveolin-1] | greater than 50% | reversed | restored | did not restore | reversed | reversed | inhibited | Neither TGFβ nor CSD affected | Neither TGFβ nor CSD affected | 1 mg/kg/day | 300 fold | decreased essentially to the uninduced level | Substantial inhibition | decreased | increased | greatly decreased | inhibited | inhibited
2 | Cc1ccc(=O)n(-c2ccccc2)c1 [pirfenidone, reference compound] |  |  |  |  |  |  |  |  |  | 300 mg/kg/day |  |  |  |  |  |  |  | 
